In patent US9796697B2, “Tricyclic inhibitors of HIF-2-alpha and uses thereof” (Peloton Therapeutics, Inc., priority 2015, dated 2017):

Tests used:
[1] = target: T1, HIF-2α HIS TAG-PASB Domain (Homo sapiens, UniProt Q99814); assay: HIF-2α Scintillation Proximity Assay (SPA); format: binding; conditions: displacement of tritiated probe N-(3-Chlorophenyl-4,6-t2)-4-nitrobenzo[c][1,2,5]oxadiazol-5-amine from HIF-2α PASB domain
T1 construct: 100 nM HIF-2α HIS TAG-PASB Domain
Procedure: Example 8: HIF-2α Scintillation Proximity Assay (SPA)
The total assay volume was about 100 μL in the following configuration: 2 μL compound in 100% DMSO, 88 μL buffer with protein and probe and 10 μL of SPA beads. The compound was diluted in a master plate consisting of a 10-point dose response with a 3-fold compound dilution from 100 μM to 5 nM. Assays were run on a 96-well plate in which one column, designated as the high signal control, contained DMSO with no compound and another column, designated as the low signal control, contained no protein. Prior to plating out of compound, a buffer solution, consisting of 25 mM TRIS pH 7.5 (Sigma), 150 mM NaCl (Sigma), 15% Glycerol (Sigma), 0.15% BSA (Sigma), 0.001% Tween-20 (Sigma), 150 nM N-(3-Chlorophenyl-4,6-t2)-4-nitrobenzo[c][1,2,5]oxadiazol-5-amine and 100 nM HIF-2α HIS TAG-PASB Domain, was made and allowed to equilibrate for 30 minutes. Compounds that were to be tested were then plated in to a 96-well white clear bottom Isoplate-96 SPA plate (Perkin Elmer). To the compounds was added 88 μL of the buffer solution, then the plate covered with a plastic cover and aluminum foil, placed onto a shaker and equilibrated for 1 hour. After equilibration, 10 μL of a 2 mg/mL solution of YSi Cu His tagged SPA beads (Perkin Elmer) were then added to each well of the plate, covered and equilibrated for another 2 hours. The plates were then removed from the shaker, placed into a 1450 LSC and luminescence counter MicroBeta Trilux (Perkin Elmer) to measure the extent of probe displacement. The percent inhibition was determined and IC50 values were calculated using the Dotmatics system based on the following equation: % inhibition=[(high control−sample)/(high control−low control)]×100.

786-O-Hif-Luc cells = assay: Luciferase Assay; format: cell-based; conditions: HIF responsive element luciferase reporter, about 24 hours
Procedure: Example 10: Luciferase Assay
786-O-Hif-Luc single clone cells were obtained by infecting 786-0 cells (ATCC® CRL-1932™) with commercial lentivirus that delivers a luciferase gene driven by multiple HIF responsive elements (Cignal Lenti HIF Reporter (luc): CLS-007L, Qiagen) at Multiplicity of Infection (MOI) of 25 for 24 hours. The cells were replenished with fresh medium (Dulbecco's Modified Eagle's Medium (DMEM, D5796, Sigma) supplemented with 10% FBS (F6178, Sigma), 100 units penicillin and 100 μg streptomycin/mL (P4333, Sigma)) for another 24 hours. A pool of infected cells were then selected against 2 μg/mL of puromycin (P8833, Sigma) for 10 days followed by limited dilution to select single clones. […] For the luciferase assay, about 7500 786-O-Hif-Luc cells in 90 μL growth medium were seeded into each well of a 96-well white opaque plate (08-771-26, Fisher scientific) a day before treatment with the layout presented in FIG. 2.
On treatment day, serial dilutions of 10× compound stocks were made in growth medium from 500×DMSO stocks, and 10 μL, of the 10× stocks were added to each well to make final concentrations as follows GAM): 20, 6.67, […], 0.74, 0.25, 0.08, 0.027, 0.009, 0.003, 0.001, and 0. Each concentration was tested in triplicate. After about 24 hours, luciferase activity was determined using ONE-Glo Luciferase Assay Reagent (E6110, Promega) following the manufacturer's recommended procedure. EC50 were calculated using Dotmatics software.

786-O cells = assay: VEGF ELISA Assay; format: cell-based; conditions: Homo sapiens, 786-0; VEGF concentration in culture medium of 786-O cells
Procedure: Example 9: VEGF ELISA Assay
About 7500 786-O cells in 180 μL of growth medium were seeded into each well of a 96-well, white, clear bottom plate (07-200-566, Fisher Scientific) on day one in the layout presented in FIG. 1.
Four hours later, serial dilutions of 10× compound stocks were made in growth medium from 500×DMSO stocks, and 20 μL of those 10× stocks were added to each well to make final concentrations as follows (μM): 20, 6.67, 2.22, 0.74, 0.25, 0.082, 0.027, 0.009, 0.003, 0.001, and 0. Each concentration was plated in duplicate. About 20 hours later, medium was removed by suction and each well was supplied with 180 μL of growth medium. About 20 μl freshly-made 10× compound stocks were added to each well. […] The EC50 was calculated by GraphPad Prism using the dose-response-inhibition (four parameter) equation. The cell-seeded plate was then subjected to CellTiter-Glo luminescence cell viability assay (Promega) by adding 50 μL of Celltiter Glo reagent into each well and shaking the plate for 8 minutes at 550 rpm (Thermomixer R, Eppendorf) then the luminescence signal immediately read in a plate reader (3 second delay, 0.5 second/well integration time, Synergy 2 multi Detection Microplate reader).

T1 sequence (Q99814 239-348): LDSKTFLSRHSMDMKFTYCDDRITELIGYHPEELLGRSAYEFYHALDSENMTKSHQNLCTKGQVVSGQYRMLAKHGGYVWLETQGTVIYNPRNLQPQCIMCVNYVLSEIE

Row | EC50 [1] [nM] | EC50 (786-O-Hif-Luc cells) [nM] | EC50 (786-O cells) [nM] | SMILES
1 | 50 to 249 | 250 to 1000 | – | N#Cc1cncc(Oc2ccc3c4c2C(F)CC4(O)C(F)(F)S3(=O)=O)c1 (centres unmarked) [Compound 19]
2 | 250 to 1000 | – | – | N#Cc1cc(F)cc(Oc2ccc3c4c2C(F)CC4(F)C(F)(F)S3(=O)=O)c1 (centres unmarked) [Compound 10, 3-fluoro-5-((2,2,2a,4-tetrafluoro-1,1-dioxido-2,2a,3,4-tetrahydroindeno[7,1-bc]thiophen-5-yl)oxy)benzonitrile]
3 | < 50 | < 50 | < 50 | C=C1CC2(O)c3c(ccc(Oc4cc(F)cc(C#N)c4)c31)S(=O)(=O)C2(F)F (centres unmarked) [Compound 13, 3-((2,2-difluoro-2a-hydroxy-4-methylene-1,1-dioxido-2,2a,3,4-tetrahydroindeno[7,1-bc]thiophen-5-yl)oxy)-5-fluorobenzonitrile]
4 | 250 to 1000 | 250 to 1000 | – | C=C1CC2(O)c3c(ccc(Oc4cncc(F)c4)c31)S(=O)(=O)C2(F)F (centres unmarked) [Compound 9]
5 | 50 to 249 | 50 to 249 | – | CC1CC2(O)c3c(ccc(Oc4cc(F)cc(C#N)c4)c31)S(=O)(=O)C2(F)F (centres unmarked) [Compound 8, 3-((2,2-difluoro-2a-hydroxy-4-methyl-1,1-dioxido-2,2a,3,4-tetrahydroindeno[7,1-bc]thiophen-5-yl)oxy)-5-fluorobenzonitrile]
6 | > 1000 | – | – | N#Cc1cc(F)cc(Oc2ccc3c4c2C(F)CC4(F)CS3(=O)=O)c1 (centres unmarked) [Compound 1]
7 | < 50 | < 50 | 50 to 249 | N#Cc1cc(F)cc(Oc2ccc3c4c2C(F)CC4(O)C(F)(F)S3(=O)=O)c1 (centres unmarked) [Compound 6, 3-fluoro-5-((2,2,4-trifluoro-2a-hydroxy-1,1-dioxido-2,2a,3,4-tetrahydroindeno[7,1-bc]thiophen-5-yl)oxy)benzonitrile]
8 | > 1000 | – | – | N#Cc1cc(F)cc(Oc2ccc3c4c2C(F)C[C@@]4(O)C(F)(F)S3(=O)=O)c1 (some centres unmarked) [Compound 20]
9 | 50 to 249 | 250 to 1000 | – | C=C1CC2(N)c3c(ccc(Oc4cc(F)cc(C#N)c4)c31)S(=O)(=O)C2(F)F (centres unmarked) [Compound 3, 3-((2a-amino-2,2-difluoro-4-methylene-1,1-dioxido-2,2a,3,4-tetrahydroindeno[7,1-bc]thiophen-5-yl)oxy)-5-fluorobenzonitrile]
10 | > 1000 | – | – | N#Cc1cc(F)cc(Oc2ccc3c4c2C(F)CC4(O)CS3(=O)=O)c1 (centres unmarked) [Compound 7]
11 | > 1000 | – | – | N#Cc1cc(F)cc(Oc2ccc3c4c2C(F)C(F)C4(F)CS3(=O)=O)c1 (centres unmarked) [Compound 16]
12 | > 1000 | > 1000 | – | N#Cc1cc(F)cc(Oc2ccc3c4c2C(F)C(F)C4(O)CS3(=O)=O)c1 (centres unmarked) [Compound 5]
13 | > 1000 | – | – | C=C1CC2(O)CS(=O)(=O)c3ccc(Oc4cc(F)cc(C#N)c4)c1c32 (centres unmarked) [Compound 12]
14 | < 50 | 250 to 1000 | – | C=C1CC2(O)c3c(ccc(Oc4cncc(C#N)c4)c31)S(=O)(=O)C2(F)F (centres unmarked) [Compound 14]
15 | 250 to 1000 | 250 to 1000 | – | N#Cc1cc(F)cc(Oc2ccc3c4c2C(=O)CC4(O)C(F)(F)S3(=O)=O)c1 (centres unmarked) [Compound 11, 3-((2,2-difluoro-2a-hydroxy-1,1-dioxido-4-oxo-2,2a,3,4-tetrahydroindeno[7,1-bc]thiophen-5-yl)oxy)-5-fluorobenzonitrile]
16 | > 1000 | – | – | N#Cc1cncc(Oc2ccc3c4c2C(F)CC4(F)C(F)(F)S3(=O)=O)c1 (centres unmarked) [Compound 2]
17 | < 50 | < 50 | < 50 | N#Cc1cc(F)cc(Oc2ccc3c4c2[C@@H](F)C[C@]4(O)C(F)(F)S3(=O)=O)c1 [Compound 15]
18 | 50 to 249 | 250 to 1000 | – | N#Cc1cc(F)cc(Oc2ccc3c4c2CCC4C(F)(F)S3(=O)=O)c1 (centres unmarked) [Compound 18]
19 | > 1000 | – | – | C=C1CC2(O)c3c(ccc(OCC(F)F)c31)S(=O)(=O)C2(F)F (centres unmarked) [Compound 17]
20 | 50 to 249 | 50 to 249 | – | N#Cc1cc(F)cc(Oc2ccc3c4c2CCC4(O)C(F)(F)S3(=O)=O)c1 (centres unmarked) [Compound 4]
